The values that follow come from patent US20230079819A1, “COMPOUNDS AND USES THEREOF” (Foghorn Therapeutics Inc., priority 2019, published 2023).

A value given as a limit tells only on which side of the number the result lay.

The target in one test is T1, BRG-1 (Homo sapiens, UniProt P51532).
T1 construct: made in house; host or cells: High Five insect cells
Kind of test: ATPase catalytic activity of BRG-1, ADP-Glo in vitro biochemical assay. To be noted: ATPase catalytic activity, 30 nM BRG-1, 400 μM ATP, read-out: BRG1 IP50 (μM)*. In general terms: In ADP-Glo the light output rises with the ADP produced.

In another test the target is T2, BRM (Homo sapiens, UniProt P51531).
T2 construct: made in house; host or cells: High Five insect cells
T2 sequence (P51531 whole entry): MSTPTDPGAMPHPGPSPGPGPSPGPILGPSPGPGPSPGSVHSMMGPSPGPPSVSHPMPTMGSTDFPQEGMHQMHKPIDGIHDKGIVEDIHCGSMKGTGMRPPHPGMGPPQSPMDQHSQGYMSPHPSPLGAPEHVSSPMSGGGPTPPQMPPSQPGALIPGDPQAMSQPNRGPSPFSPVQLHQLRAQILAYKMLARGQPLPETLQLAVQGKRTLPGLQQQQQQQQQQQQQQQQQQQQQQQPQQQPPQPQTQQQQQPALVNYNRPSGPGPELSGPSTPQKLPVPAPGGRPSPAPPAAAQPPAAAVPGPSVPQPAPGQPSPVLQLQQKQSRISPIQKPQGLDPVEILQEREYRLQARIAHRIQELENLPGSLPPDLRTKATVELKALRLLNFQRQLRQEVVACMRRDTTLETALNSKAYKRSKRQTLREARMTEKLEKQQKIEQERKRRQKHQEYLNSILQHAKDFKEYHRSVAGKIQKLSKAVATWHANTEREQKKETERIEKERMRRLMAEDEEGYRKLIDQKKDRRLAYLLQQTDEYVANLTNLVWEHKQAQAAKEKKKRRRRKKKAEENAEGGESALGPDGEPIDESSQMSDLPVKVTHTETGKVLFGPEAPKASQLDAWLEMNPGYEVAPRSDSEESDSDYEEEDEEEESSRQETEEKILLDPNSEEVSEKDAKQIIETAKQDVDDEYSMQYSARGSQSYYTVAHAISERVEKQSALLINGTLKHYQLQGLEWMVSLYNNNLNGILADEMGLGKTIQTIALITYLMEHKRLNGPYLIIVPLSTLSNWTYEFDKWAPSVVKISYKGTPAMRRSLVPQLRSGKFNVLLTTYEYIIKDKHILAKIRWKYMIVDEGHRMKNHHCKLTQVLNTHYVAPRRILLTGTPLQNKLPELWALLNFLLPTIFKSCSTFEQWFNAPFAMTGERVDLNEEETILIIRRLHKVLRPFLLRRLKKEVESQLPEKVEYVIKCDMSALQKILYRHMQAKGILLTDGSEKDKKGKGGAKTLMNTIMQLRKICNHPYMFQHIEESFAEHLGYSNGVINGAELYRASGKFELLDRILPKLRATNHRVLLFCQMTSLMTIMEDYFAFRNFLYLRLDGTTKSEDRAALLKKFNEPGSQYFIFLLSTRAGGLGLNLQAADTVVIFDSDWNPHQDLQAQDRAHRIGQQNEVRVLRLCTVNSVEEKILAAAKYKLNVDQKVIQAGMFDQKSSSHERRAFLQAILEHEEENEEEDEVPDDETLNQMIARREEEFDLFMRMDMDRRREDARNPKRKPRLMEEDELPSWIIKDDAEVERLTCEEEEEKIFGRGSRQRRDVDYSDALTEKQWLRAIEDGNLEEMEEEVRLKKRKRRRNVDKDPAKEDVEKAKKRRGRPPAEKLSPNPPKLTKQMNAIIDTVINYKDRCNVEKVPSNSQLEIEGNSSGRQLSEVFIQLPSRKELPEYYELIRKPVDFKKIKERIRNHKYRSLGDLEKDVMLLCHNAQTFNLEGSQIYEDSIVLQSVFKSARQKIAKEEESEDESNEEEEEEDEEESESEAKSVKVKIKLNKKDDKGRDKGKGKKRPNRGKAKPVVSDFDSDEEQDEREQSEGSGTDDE
Kind of test: ATPase catalytic activity of BRM, ADP-Glo in vitro biochemical assay. The conditions noted are these: ATPase catalytic activity, 30 nM BRM, 400 μM ATP, read-out: BRM IP50 (μM)*.

T1 sequence (P51532 whole entry): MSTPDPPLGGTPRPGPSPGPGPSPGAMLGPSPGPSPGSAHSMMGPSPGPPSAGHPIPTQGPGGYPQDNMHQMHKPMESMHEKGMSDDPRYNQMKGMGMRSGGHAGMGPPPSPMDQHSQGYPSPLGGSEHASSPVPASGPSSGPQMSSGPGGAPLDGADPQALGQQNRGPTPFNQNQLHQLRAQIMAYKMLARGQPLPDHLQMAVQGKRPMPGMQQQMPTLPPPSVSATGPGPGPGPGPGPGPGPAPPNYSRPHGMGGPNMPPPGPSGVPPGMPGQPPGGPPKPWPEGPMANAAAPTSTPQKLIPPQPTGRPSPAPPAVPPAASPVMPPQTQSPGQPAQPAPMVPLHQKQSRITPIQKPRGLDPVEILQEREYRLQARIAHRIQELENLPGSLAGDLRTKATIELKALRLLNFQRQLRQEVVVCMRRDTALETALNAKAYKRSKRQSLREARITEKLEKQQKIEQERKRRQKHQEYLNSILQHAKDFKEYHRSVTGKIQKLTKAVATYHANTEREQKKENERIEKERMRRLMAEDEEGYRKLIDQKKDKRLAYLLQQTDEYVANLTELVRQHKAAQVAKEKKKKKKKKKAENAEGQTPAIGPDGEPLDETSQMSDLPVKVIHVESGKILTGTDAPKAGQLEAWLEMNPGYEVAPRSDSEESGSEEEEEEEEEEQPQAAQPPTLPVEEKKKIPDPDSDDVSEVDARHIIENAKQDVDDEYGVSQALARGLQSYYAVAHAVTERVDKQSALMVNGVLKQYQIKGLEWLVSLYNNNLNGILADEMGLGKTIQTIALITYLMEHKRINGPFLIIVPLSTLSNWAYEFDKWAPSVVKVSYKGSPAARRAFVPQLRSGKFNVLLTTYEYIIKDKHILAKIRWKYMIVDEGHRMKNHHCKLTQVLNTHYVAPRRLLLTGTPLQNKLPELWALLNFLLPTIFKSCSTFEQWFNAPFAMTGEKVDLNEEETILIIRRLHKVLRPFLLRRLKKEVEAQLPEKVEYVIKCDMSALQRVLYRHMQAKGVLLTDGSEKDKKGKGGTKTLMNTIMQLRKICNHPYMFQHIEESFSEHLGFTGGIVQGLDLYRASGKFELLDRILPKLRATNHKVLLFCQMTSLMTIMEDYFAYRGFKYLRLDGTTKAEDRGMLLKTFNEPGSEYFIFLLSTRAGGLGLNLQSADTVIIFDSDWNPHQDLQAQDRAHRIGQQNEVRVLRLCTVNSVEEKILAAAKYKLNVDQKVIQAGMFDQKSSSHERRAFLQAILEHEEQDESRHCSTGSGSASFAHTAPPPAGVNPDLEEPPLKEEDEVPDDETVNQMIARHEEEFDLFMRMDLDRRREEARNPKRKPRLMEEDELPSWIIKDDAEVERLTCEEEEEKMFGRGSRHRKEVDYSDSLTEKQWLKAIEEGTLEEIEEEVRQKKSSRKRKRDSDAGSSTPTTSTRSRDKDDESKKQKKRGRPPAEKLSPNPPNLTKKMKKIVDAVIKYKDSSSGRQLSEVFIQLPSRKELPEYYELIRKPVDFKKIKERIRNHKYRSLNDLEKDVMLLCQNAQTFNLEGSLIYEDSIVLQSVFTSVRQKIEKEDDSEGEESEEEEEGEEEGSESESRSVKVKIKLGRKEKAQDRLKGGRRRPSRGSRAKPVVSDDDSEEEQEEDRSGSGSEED

In the case of `CS(=O)(=O)n1ccc(C(=O)NCC(=O)Nc2nc(-c3cccc(N4CC(n5ccnc5)C4)c3)cs2)c1` [Compound 172], the IC50 is more than 0.1 µM on BRG-1 and more than 0.01 µM on BRM.

Regarding `CS(=O)(=O)n1ccc(C(=O)NCC(=O)Nc2nc(-c3cccc(N4CC(n5cccn5)C4)c3)cs2)c1` [Compound 174], the IC50 on BRG-1 and at BRM was more than 0.01 µM throughout.

Consider `CN(C)C1CN(c2cccc(-c3csc(NC(=O)CNC(=O)c4ccn(S(C)(=O)=O)c4)n3)c2)C1` [Compound 175], for which the IC50 on BRG-1 and on BRM was more than 0.01 µM in each case.

Take `CS(=O)(=O)n1ccc(C(=O)NCC(=O)Nc2nc(-c3cccc(N4CC(O)(C(F)(F)F)C4)c3)cs2)c1` [Compound 176]: the IC50 at BRG-1 and at BRM was more than 0.1 µM each time.

On to `CS(=O)(=O)n1ccc(C(=O)NCC(=O)Nc2nc(-c3cccc(N4CC[C@H](O)C4)c3)cs2)c1` [Compound 177], for which the IC50 on BRG-1 and at BRM was more than 0.01 µM throughout.

For the compound `CS(=O)(=O)n1ccc(C(=O)NCC(=O)Nc2nc(-c3cccc(N4CC[C@@H](O)C4)c3)cs2)c1` [Compound 178], the IC50 at BRG-1 and on BRM was less than 0.01 µM each time.

Consider `CC1(O)CN(c2cccc(-c3csc(NC(=O)CNC(=O)c4ccn(S(C)(=O)=O)c4)n3)c2)C1` [Compound 179], for which the IC50 on BRG-1 and on BRM was more than 0.01 µM in each case.

`CO[C@H]1CN(c2cccc(-c3csc(NC(=O)CNC(=O)c4ccn(S(C)(=O)=O)c4)n3)c2)C[C@@H]1F` [Compound 180]: the IC50 at BRG-1 and on BRM was more than 0.01 µM in each case.

Turning to `C[C@@H]1CN(c2cccc(-c3nc(NC(=O)CNC(=O)c4ccn(S(C)(=O)=O)c4)sc3F)c2)C[C@H](C)O1` [Compound 181, N-[2-[[4-[3-[(cis)-2,6-dimethylmorpholin-4-yl]phenyl]-5-fluoro-thiazol-2-yl]amino]-2-oxo-ethyl]-1-methylsulfonyl-pyrrole-3-carboxamide], the IC50 at BRG-1 and at BRM was more than 0.01 µM in each case.

Turning to `C[C@@H]1CN(c2cccc(-c3csc(NC(=O)CNC(=O)c4ccn(S(C)(=O)=O)c4)n3)c2)CC[C@H]1O` [Compound 182, N-[2-[[4-[3-[(3R,4R)-4-hydroxy-3-methyl-1-piperidyl]phenyl]thiazol-2-yl]amino]-2-oxo-ethyl]-1-methylsulfonyl-pyrrole-3-carboxamide], the IC50 at BRG-1 and at BRM was less than 0.01 µM each time.

On to `C[C@H]1CN(c2cccc(-c3csc(NC(=O)CNC(=O)c4ccn(S(C)(=O)=O)c4)n3)c2)CC[C@@H]1O` [Compound 183, N-[2-[[4-[3-[(3S,4S)-4-hydroxy-3-methyl-1-piperidyl]phenyl]thiazol-2-yl]amino]-2-oxo-ethyl]-1-methylsulfonyl-pyrrole-3-carboxamide], for which the IC50 at BRG-1 and at BRM was less than 0.01 µM in each case.

Take `COCCOC1CN(c2cccc(-c3csc(NC(=O)CNC(=O)c4ccn(S(C)(=O)=O)c4)n3)c2)C1` [Compound 184]: the IC50 at BRG-1 and at BRM was more than 0.01 µM each time.

Regarding `CC1(n2ccc(C(=O)NCC(=O)Nc3nc(-c4cccc(N5CCC5)c4)cs3)c2)COC1` [Compound 185], the IC50 at BRG-1 and at BRM was more than 0.01 µM in each case.

For `CC(C)(C)n1ccc(C(=O)NCC(=O)Nc2nc(-c3cccc(N4CCC4)c3)cs2)c1` [Compound 186], the IC50 on BRG-1 and at BRM was more than 0.01 µM each time.

Consider `C[C@@H]1CN(c2cccc(-c3csc(NC(=O)CNC(=O)c4ccn(S(C)(=O)=O)c4)n3)c2)CC[C@@H]1O` [Compound 188], for which the IC50 is more than 0.01 µM on BRG-1 and less than 0.01 µM at BRM.

Take `CN(C)C(=O)Cn1ccc(-c2cccc(-c3csc(NC(=O)CNC(=O)c4ccn(S(C)(=O)=O)c4)n3)c2)n1` [Compound 189]: the IC50 on BRG-1 and at BRM was less than 0.01 µM each time.

`CS(=O)(=O)n1ccc(C(=O)NCC(=O)Nc2nc(-c3cccc(N4CC[C@H](O)[C@@H](F)C4)c3)cs2)c1` [Compound 190]: the IC50 at BRG-1 and at BRM was less than 0.01 µM in each case.

On to `CS(=O)(=O)n1ccc(C(=O)NCC(=O)Nc2nc(-c3cccc(N4CC[C@H](O)[C@H](F)C4)c3)cs2)c1` [Compound 191], for which the IC50 on BRG-1 is more than 0.01 µM; on BRM it was less than 0.01 µM.

Consider `COCCS(=O)(=O)n1ccc(C(=O)NCC(=O)Nc2nc(-c3cccc(N4C[C@@H](C)O[C@@H](C)C4)c3)cs2)c1` [Compound 193], for which the IC50 on BRG-1 and at BRM was more than 0.01 µM each time.

For the compound `CC1(C)CN(c2cccc(-c3csc(NC(=O)CNC(=O)c4ccn(S(C)(=O)=O)c4)n3)c2)CCC1O` (stereo not drawn) [Compound 194], the IC50 on BRG-1 is more than 0.01 µM; at BRM, less than 0.01 µM.

As for `CS(=O)(=O)n1ccc(C(=O)NCC(=O)Nc2nc(-c3cccc(N4CC[C@@H](O)[C@H](F)C4)c3)cs2)c1` [Compound 195], the IC50 on BRG-1 and at BRM was less than 0.01 µM throughout.

Consider `CS(=O)(=O)n1ccc(C(=O)NCC(=O)Nc2nc(-c3cccc(N4CC[C@@H](O)[C@@H](F)C4)c3)cs2)c1` [Compound 196], for which the IC50 on BRG-1 and on BRM was less than 0.01 µM each time.

With `CS(=O)(=O)n1ccc(C(=O)NCC(=O)Nc2nc(-c3cccc(N4CCC[C@H](C#N)C4)c3)cs2)c1` [Compound 197], the IC50 at BRG-1 was more than 0.01 µM; at BRM, less than 0.01 µM.

With `CO[C@H]1CN(c2cccc(-c3csc(NC(=O)CNC(=O)c4ccn(S(C)(=O)=O)c4)n3)c2)C[C@H]1OC` [Compound 199], the IC50 at BRG-1 and at BRM was more than 0.01 µM each time.

For `COC[C@H]1CCN(c2cccc(-c3csc(NC(=O)CNC(=O)c4ccn(S(C)(=O)=O)c4)n3)c2)C1` [Compound 200], the IC50 on BRG-1 and on BRM was more than 0.01 µM each time.

Turning to `COC[C@@H]1CCN(c2cccc(-c3csc(NC(=O)CNC(=O)c4ccn(S(C)(=O)=O)c4)n3)c2)C1` [Compound 201], the IC50 was more than 0.01 µM on BRG-1 and less than 0.01 µM on BRM.

On to `CS(=O)(=O)n1ccc(C(=O)NCC(=O)Nc2nc(-c3cccc(N4CCC5(CC4)COC5)c3)cs2)c1` [Compound 202], for which the IC50 at BRG-1 and at BRM was more than 0.01 µM each time.

Regarding `CC1(C)CN(c2cccc(-c3csc(NC(=O)CNC(=O)c4ccn(S(C)(=O)=O)c4)n3)c2)CC(C)(C)O1` [Compound 203], the IC50 at BRG-1 and on BRM was more than 0.01 µM in each case.

With `CS(=O)(=O)n1ccc(C(=O)NCC(=O)Nc2nc(-c3cccc(N4CCCC5(COC5)C4)c3)cs2)c1` [Compound 204], the IC50 at BRG-1 and on BRM was more than 0.01 µM in each case.

Consider `C[C@]1(O)CCCN(c2cccc(-c3csc(NC(=O)CNC(=O)c4ccn(S(C)(=O)=O)c4)n3)c2)C1` [Compound 205], for which the IC50 on BRG-1 and on BRM was more than 0.01 µM throughout.

As to `C[C@@]1(O)CCCN(c2cccc(-c3csc(NC(=O)CNC(=O)c4ccn(S(C)(=O)=O)c4)n3)c2)C1` [Compound 206], the IC50 is more than 0.01 µM at BRG-1 and less than 0.01 µM at BRM.

Regarding `CS(=O)(=O)n1ccc(C(=O)NCC(=O)Nc2nc(-c3cccc(N4C[C@H]5C[C@H]5C4)c3)cs2)c1` [Compound 207], the IC50 at BRG-1 and at BRM was more than 0.01 µM throughout.

Consider `CS(=O)(=O)n1ccc(C(=O)NCC(=O)Nc2nc(-c3cccc(N4CCC[C@H](F)C4)c3)cs2)c1` [Compound 208], for which the IC50 on BRG-1 and at BRM was more than 0.01 µM in each case.
